According to PMC10096180, “Half-Sandwich Type Platinum-Group Metal Complexes of C-Glucosaminyl Azines: Synthesis and Antineoplastic and Antimicrobial Activities” (Molecules, 2023):
Read-outs that look alike come from different tables or passages of the source.

Experiments:
[1] = system: A2780 cells; assay: MTT reduction assay, early toxicity, 4 h treatment; format: cell-based
Outline: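 Cells plated the day before, exposed to compounds for 4 h, then MTT 0.5 mg/mL for 40–60 min at 37 °C; reduced dye dissolved in DMSO, read at 540 nm relative to vehicle wells. IC50 by four-parameter fit; otherwise % inhibition at 100 μM.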

[2] = Distribution coefficient (logD), n-octanol-PBS; format: physicochemical; conditions: n-octanol-PBS (pH = 7.4) system
Experimental: The logD values of the newly synthesized complexes were determined according to a procedure described in our previous publications. page 64: Ir-7b +1.17 Rh-7b +1.41 Ru-7c +1.31 Os-7c +1.59 Ir-7c +1.40 Rh-7c +1.13 Ru-7d +1.26 Os-7d +1.42 Ir-7d +1.30 Rh-7d +1.04 Ru-7e +2.22 Os-7e +2.21 Ir-7e +1.39 Rh-7e +1.66 *logD was determined in an n-octanol-PBS (pH = 7.4) system 64 (14 pictures or pasted objects on this page, not shown here)

[3] = system: Capan2 cells; assay: SRB assay, 48 h; format: cell-based
Experimental: (§1) Figure 8 Assessment of free ligand 3a and complex Ru-3a for cytostatic activity in multiple carcinomas. […] Cells were treated with the compounds in the concentrations indicated for 48 h; then, an SRB assay was performed. Data are represented as average ± SD from three biological replicates; individual assays were performed in duplicates. Values were normalized for vehicle-treated cells; absorbance for vehicle-treated cells equals 1. Statistical significance was assessed using a one-way ANOVA test comparing all values to the lowest concentration of a compound. Before the test, normality was assessed using the Shapiro–Wilk test, and the post hoc test was chosen accordingly. […] An SRB assay measures protein content of cells in correlation with the cell number in an assay well and can therefore be used to assess cell proliferation or long-term cytostasis. Cells were seeded in 96-well plates the day before the assay. Cells were treated with the compounds for 48 h. Then medium was removed, and cells were fixed with 10% trichloroacetic acid. […] Stained cells were washed in 1% acetic acid 5 times; acetic acid was removed, and cells were left to dry. Protein-bound SRB was released by adding 100 μL 10 mM Tris base. Plates were measured in a plate photometer (Thermo Scientific Multiscan GO spectrophotometer, Waltham, MA, USA) at 540 nm. On each plate, wells were designed to contain vehicle-treated cells. […] Statistical analysis was performed using version 8.0.1 of GraphPad Prism. Values were tested for normal distribution using the Shapiro–Wilk normality test. […] In other cases, the percentage of inhibition was taken for the maximum concentration (100 μM).

[4] = system: ID8 cells; assay: SRB assay, 48 h; format: cell-based
Experimental: as §1

[5] = system: MCF7 cells; assay: SRB assay, 48 h; format: cell-based
Experimental: as §1

[6] = system: U251 cells; assay: SRB assay, 48 h; format: cell-based
Experimental: as §1

[7] = system: Enterococcus faecalis (ATCC29212); assay: Broth microdilution MIC, reference strain; format: cell-based; conditions: 24 h, tested range 0.08–40 μM, read-out: MIC E. faecalis ATCC 29,212
Outline: (§2)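 EUCAST broth microdilution in Mueller–Hinton broth, inoculum 5.0 × 10^5 CFU/mL, compounds at 0.08–40 μM (twofold dilutions), 24 h at 37 °C. Plates read visually; MIC taken as lowest concentration giving ≥50% inhibition versus drug-free growth control.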

[8] = system: Staphylococcus aureus (ATCC29213); assay: Broth microdilution MIC, reference strain; format: cell-based; conditions: 24 h, 0.08–40 μM, read-out: MIC S. aureus ATCC 29213
Outline: as §2

[9] = system: methicillin-resistant Staphylococcus aureus (MRSA) clinical isolates; assay: Broth microdilution MIC, clinical MRSA isolates; format: cell-based; conditions: 24 h, 0.08–40 μM
Outline: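 S. aureus and E. faecium clinical isolates (Debrecen, 2018–2020; MALDI-TOF-identified) tested by EUCAST broth microdilution in Mueller–Hinton broth at 5.0 × 10^5 CFU/mL across 0.08–40 μM (twofold). After 24 h at 37 °C, visually read; MIC is the lowest concentration giving ≥50% inhibition versus growth control. At least two runs in duplicate.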

logD [2]: 2.72
IC50 [5]: 2300 nM
IC50 [6]: 3970 nM
MIC [7]: 10 µM
MIC [8]: 5 µM
MIC ([9]; clinical isolate 20,426 MRSA, read-out: MIC 20,426 MRSA): 5 µM
MIC ([9]; clinical isolate 24,035 MRSA, read-out: MIC 24,035 MRSA): 5 µM
MIC ([9]; clinical isolate 24,268 MRSA, read-out: MIC 24,268 MRSA): 5 µM
MIC ([9]; clinical isolate 24,272 MRSA, read-out: MIC 24,272 MRSA): 5 µM
MIC ([9]; clinical isolate 24,328 MRSA, read-out: MIC 24,328 MRSA): 5 µM
MIC ([9]; clinical isolate 24,408 MRSA, read-out: MIC 24,408 MRSA): 5 µM
Compound: Cc1ccc(C(C)C)cc1.F[P-](F)(F)(F)(F)F.N[C@@H]1[C@@H](OCc2ccccc2)[C@H](OCc2ccccc2)[C@@H](COCc2ccccc2)O[C@H]1c1ccccn1.[Cl][Ru+] [Ru-3a]
IC50 [1]: 8020 nM
A2780 MTT Max Inhibition ([1]; inhibition at maximum concentration (100 μM) where no plateau, ND = not detectable): >90%
Capan2 SRB Max Inhibition [3]: >90%
IC50 [3]: 2250 nM
IC50 [4]: 2540 nM
ID8 SRB Max Inhibition [4]: >90%
MCF7 SRB Max Inhibition [5]: >90%
U251 SRB Max Inhibition [6]: >90%
